# Reference: ChEMBL document CHEMBL1201862, “PubChem BioAssay data set” (2004)
# Calls of active or inactive are those of the source.
# Columns and labels:
# [1] = biological target: Voltage-gated inwardly rectifying potassium channel KCNH2 (Homo sapiens, UniProt Q12809); details: Potency;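 further: confirmatory quantitative high-throughput screen measuring inhibition of hERG channel activity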
# [2] = biological target: T1, Aryl hydrocarbon receptor (Homo sapiens, UniProt P35869); details: Potency;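 further: confirmatory quantitative high-throughput screen measuring activation of the AhR signaling pathway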
# T1 sequence (P35869 whole entry): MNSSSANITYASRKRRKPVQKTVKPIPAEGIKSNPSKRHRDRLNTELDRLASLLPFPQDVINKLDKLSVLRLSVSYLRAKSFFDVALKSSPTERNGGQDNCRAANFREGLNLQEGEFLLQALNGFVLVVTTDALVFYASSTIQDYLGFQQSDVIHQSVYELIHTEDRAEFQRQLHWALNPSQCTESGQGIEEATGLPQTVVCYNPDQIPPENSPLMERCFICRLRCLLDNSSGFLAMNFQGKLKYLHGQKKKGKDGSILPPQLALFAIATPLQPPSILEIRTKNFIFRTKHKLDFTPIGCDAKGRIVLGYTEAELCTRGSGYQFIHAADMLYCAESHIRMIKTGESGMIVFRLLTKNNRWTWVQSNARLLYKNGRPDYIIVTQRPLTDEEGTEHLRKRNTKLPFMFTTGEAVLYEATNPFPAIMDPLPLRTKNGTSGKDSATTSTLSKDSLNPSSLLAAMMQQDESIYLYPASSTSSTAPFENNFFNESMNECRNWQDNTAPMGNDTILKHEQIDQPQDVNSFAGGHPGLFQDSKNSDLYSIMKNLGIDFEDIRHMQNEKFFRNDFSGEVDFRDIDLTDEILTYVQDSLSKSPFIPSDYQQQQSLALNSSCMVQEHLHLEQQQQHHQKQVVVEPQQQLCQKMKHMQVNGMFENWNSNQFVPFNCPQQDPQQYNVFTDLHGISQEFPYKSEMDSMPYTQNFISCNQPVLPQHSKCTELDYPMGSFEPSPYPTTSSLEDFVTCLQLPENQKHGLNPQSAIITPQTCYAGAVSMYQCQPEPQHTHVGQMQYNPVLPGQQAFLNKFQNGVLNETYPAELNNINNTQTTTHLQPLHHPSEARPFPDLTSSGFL
# [3] = tested on: HeLa; assay: HeLa cell cytotoxicity, dose response, cytotoxicity control for MITF activator project, CellTiter-Glo luminescence, cherry-pick samples (AID 540259); assay type: functional, cell-based; details: Homo sapiens
# [4] = biological target: T2, Polyadenylate-binding protein 1 (Homo sapiens, UniProt P11940); assay: PABP1 MLLE–PAM2 binding inhibitor potency, dose response, biochemical, fluorescence polarization, FITC-PAM2 peptide (AID 602259); assay type: functional; details: read-out: IC50_Mean
# [5] = cytotoxicity in MIN6 insulinoma cells, dose response, cytotoxicity control, cell-based, mouse insulinoma (AID 2122); assay type: functional;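 further: confirmatory high-throughput counterscreen run to flag cytotoxic compounds; mouse MIN-6 beta cells carrying an insulin promoter eGFP reporter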
# [6] = biological target: T2, Polyadenylate-binding protein 1; assay: PABP1 MLLE–PAM2 interaction inhibitors, dose response, miRNA deadenylation inhibitor project, biochemical, fluorescence polarization, Cy5-PAM2 peptide, secondary (AID 602260); assay type: functional; details: read-out: IC50_Mean
# [7] = biological target: Nonstructural protein 1 (Influenza A virus, UniProt Q194T2); assay type: functional, Influenza A virus (A/California/07/2009(H1N1))
# [8] = insulin promoter down-regulators in MIN6 cells, imaging, high-content screening, mouse beta cells (AID 1628); assay type: functional
# [9] = biological target: Beta Lactamase (Pseudomonas aeruginosa, UniProt Q932Y6); assay: beta-lactamase reporter inhibitor potency, dose response, artefact control for TLR9-MyD88 binding inhibitor project, BLA reporter cells, FRET fluorescence (AID 588341); assay type: cell-based;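 further: cell based assay in CHO-K1 cells stably expressing beta-lactamase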
# [10] = biological target: Induced myeloid leukemia cell differentiation protein Mcl-1 (Homo sapiens, UniProt Q07820); assay type: functional
# [11] = tested on: CHO; assay: cytotoxicity in TLR9-MyD88 CHO cells, dose response, cytotoxicity control for TLR9-MyD88 binding inhibitor project, cell-based, luminescence (AID 588339); assay type: functional, hamster; details: Cricetulus griseus;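 further: CHO cells stably coexpressing TLR9 and MyD88 fusions from primary screen; compound exposure lasted 48 hours before viability readout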
# [12] = tested on: Vero; assay: Vero cell cytotoxicity, cytotoxicity control for flavivirus capping enzyme inhibitors (AID 588742); assay type: functional; details: Chlorocebus sabaeus
# [13] = tested on: Streptococcus; assay: Group A Streptococcus viability loss, dose response, counter-screen for streptokinase expression inhibitor project, luminescence, BacTiterGlo (AID 1915); assay type: functional, organism-based;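 further: potency for reduction of bacterial viability or growth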
# [14] = inhibitors of firefly luciferase expression or activity, dose response, H4 neuroglioma cells, luminescence (AID 1990); assay type: functional, cell-based
# [15] = C. albicans growth with fluconazole, confirmation, fluorescence, retest (AID 2467); assay type: functional, cell-based
# [16] = tested on: Streptococcus sp. 'group A'; assay: growth inhibition of control SK(-) GAS strain, dose response, counter-screen for streptokinase expression inhibitor project, luminescence, kanamycin, BacTiterGlo, confirmation (AID 1900); assay type: functional, organism-based
# [17] = tested on: Vero; assay: cells; assay type: functional; details: Chlorocebus sabaeus
# [18] = Luminescence Cell-Based Dose Response HTS to Identify Inhibitors of 5'UTR Stem-Loop Driven Prion Protein mRNA Translation in H4 Neuroglioblastoma Cells. [Related pubchem assays: 1827 (Project Summary), 1813 (Primary HTS)]; assay type: functional
# [19] = inhibitors of SNCA 5'UTR-driven reporter translation, confirmation, H4 neuroglioma cells, luminescence (AID 1988); assay type: functional, cell-based
# [20] = biological target: ATP-dependent molecular chaperone HSP82 (Candida albicans (strain WO-1) (Yeast), UniProt C4YTQ8); assay: loss of DOC-induced GRE-beta-galactosidase reporter signal, dose response, Hsp90 inhibitor project, S. cerevisiae, luminescence (AID 2400); assay type: functional, cell-based;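 further: beta-galactosidase luminescence from glucocorticoid response element reporter as proxy for Hsp90 function; inhibitor potency where signal loss means Hsp90 inhibition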
# [21] = NIH-3T3 fibroblast cytotoxicity, dose response, cytotoxicity control, cell-based, fluorescence, Alamar Blue, secondary assay (AID 2327); assay type: functional;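 further: NIH-3T3 mouse fibroblasts cultured with fluconazole at 8 µg/mL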
# [22] = biological target: T3, Serine/threonine-protein phosphatase (Candida dubliniensis (strain CD36 / CBS 7987 / NCPF 3949 / NRRLY-17841) (Yeast), UniProt B9W6M3); assay: calcineurin pathway inhibitors in yeast reporter, dose response, S. cerevisiae, CDRE-lacZ, luminescence, secondary (AID 2388); assay type: functional, cell-based;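 further: yeast reporter cells carrying a calcineurin-responsive lacZ construct stimulated with calcium chloride; luminescent beta-galactosidase reporter signal in whole cells rather than isolated phosphatase activity; potency for inhibition where a drop in reporter signal means calcineurin blockade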
# T3 sequence (B9W6M3 whole entry): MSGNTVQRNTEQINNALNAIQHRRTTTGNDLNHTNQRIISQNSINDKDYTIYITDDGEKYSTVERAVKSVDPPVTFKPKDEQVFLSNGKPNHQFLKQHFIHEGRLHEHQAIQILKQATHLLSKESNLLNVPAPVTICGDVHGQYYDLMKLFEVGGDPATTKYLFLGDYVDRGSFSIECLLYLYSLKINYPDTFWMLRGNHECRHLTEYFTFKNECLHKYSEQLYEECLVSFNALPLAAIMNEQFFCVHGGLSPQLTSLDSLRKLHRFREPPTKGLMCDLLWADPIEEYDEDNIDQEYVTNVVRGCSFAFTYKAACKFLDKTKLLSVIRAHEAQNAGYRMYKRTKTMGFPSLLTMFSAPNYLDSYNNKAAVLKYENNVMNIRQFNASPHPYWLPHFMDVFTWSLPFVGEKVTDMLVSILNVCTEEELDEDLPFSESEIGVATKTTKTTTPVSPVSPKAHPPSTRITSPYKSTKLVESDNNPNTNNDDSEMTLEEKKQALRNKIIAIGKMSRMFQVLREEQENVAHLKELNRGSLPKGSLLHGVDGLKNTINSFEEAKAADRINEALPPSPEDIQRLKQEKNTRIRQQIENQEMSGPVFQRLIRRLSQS
# [23] = Luminescence Cell-Based Dose Confirmation HTS to Identify Inhibitors of Platelet Dense Granule Release. [Related pubchem assays: 1663 (Primary HTS), 1678 (Summary of Project)]; assay type: functional
# [24] = tested on: HEK293; assay: inhibitors of LMP1-driven NF-kB reporter, dose response, cell-based, HEK293, luciferase, cherry-pick (AID 588343); assay type: functional; details: Homo sapiens
# [25] = biological target: Luciferin 4-monooxygenase (Photinus pyralis, UniProt P08659); assay: firefly luciferase enzyme inhibitors, dose response, biochemical, luminescence (AID 1891)
# [26] = biological target: Latent membrane protein 1 (Human herpesvirus 4 (strain B95-8), UniProt P03230); assay: TES1-eGFP NF-kB reporter inhibition versus Tet-On dsRED, dose response, selectivity assay for LMP1 NF-kB inhibitor project, imaging, HEK293T, dual-color eGFP/dsRED, cherry-picks (AID 588398); assay type: functional, cell-based
# Chain of Latent membrane protein 1 (P03230 whole entry): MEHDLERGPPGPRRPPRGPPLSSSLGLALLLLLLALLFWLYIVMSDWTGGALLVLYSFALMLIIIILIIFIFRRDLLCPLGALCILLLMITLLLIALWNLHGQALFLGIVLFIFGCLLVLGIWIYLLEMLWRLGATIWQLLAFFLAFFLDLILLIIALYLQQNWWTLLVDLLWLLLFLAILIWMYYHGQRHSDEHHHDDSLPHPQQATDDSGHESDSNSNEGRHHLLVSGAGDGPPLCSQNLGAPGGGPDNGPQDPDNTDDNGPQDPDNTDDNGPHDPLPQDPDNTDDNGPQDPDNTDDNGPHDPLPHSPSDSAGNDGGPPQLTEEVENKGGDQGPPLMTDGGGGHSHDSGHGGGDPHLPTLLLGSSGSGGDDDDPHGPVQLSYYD
# T2 sequence (P11940 whole entry): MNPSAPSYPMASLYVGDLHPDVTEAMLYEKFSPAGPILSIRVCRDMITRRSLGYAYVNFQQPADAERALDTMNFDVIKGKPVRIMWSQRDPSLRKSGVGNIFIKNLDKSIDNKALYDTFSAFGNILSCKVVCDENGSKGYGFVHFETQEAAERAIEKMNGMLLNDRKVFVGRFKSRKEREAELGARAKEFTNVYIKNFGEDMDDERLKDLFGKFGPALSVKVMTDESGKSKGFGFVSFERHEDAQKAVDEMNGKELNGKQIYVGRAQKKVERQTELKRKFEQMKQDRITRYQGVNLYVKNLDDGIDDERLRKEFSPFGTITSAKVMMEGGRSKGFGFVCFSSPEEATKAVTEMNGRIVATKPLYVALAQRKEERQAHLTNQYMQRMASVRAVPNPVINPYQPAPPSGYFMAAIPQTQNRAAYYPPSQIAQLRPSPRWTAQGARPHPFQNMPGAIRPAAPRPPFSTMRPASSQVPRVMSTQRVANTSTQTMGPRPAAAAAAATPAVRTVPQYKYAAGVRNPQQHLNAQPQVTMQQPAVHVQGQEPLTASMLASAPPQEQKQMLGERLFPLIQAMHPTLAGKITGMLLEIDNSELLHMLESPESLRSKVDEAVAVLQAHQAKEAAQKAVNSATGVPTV
# Chain of Induced myeloid leukemia cell differentiation protein Mcl-1 (Q07820 whole entry, the tested form may be a part): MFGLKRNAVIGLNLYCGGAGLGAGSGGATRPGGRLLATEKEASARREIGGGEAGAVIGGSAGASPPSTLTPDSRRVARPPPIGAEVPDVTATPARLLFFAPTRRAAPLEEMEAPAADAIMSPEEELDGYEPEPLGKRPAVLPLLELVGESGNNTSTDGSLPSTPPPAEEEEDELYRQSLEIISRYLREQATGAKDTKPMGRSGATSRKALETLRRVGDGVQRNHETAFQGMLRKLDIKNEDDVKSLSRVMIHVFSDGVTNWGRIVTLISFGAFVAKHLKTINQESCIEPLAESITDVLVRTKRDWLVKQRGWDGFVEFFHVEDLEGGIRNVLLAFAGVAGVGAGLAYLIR
# Chain of Luciferin 4-monooxygenase (P08659 whole entry): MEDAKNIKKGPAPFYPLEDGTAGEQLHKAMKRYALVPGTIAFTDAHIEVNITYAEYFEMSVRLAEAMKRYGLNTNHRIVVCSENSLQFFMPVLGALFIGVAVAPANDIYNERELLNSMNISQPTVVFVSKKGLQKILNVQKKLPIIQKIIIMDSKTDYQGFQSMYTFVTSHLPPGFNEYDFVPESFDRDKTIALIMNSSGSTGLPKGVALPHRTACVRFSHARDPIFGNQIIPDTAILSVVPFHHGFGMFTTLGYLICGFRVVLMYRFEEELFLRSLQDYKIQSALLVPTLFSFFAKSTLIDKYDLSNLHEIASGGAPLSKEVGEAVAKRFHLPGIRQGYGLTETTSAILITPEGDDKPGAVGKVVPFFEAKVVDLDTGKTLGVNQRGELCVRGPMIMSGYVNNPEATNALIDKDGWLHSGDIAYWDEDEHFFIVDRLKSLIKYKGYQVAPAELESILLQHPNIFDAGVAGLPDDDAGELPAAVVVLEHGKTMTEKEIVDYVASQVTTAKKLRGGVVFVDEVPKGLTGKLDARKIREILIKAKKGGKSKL
# Chain of ATP-dependent molecular chaperone HSP82 (C4YTQ8 whole entry): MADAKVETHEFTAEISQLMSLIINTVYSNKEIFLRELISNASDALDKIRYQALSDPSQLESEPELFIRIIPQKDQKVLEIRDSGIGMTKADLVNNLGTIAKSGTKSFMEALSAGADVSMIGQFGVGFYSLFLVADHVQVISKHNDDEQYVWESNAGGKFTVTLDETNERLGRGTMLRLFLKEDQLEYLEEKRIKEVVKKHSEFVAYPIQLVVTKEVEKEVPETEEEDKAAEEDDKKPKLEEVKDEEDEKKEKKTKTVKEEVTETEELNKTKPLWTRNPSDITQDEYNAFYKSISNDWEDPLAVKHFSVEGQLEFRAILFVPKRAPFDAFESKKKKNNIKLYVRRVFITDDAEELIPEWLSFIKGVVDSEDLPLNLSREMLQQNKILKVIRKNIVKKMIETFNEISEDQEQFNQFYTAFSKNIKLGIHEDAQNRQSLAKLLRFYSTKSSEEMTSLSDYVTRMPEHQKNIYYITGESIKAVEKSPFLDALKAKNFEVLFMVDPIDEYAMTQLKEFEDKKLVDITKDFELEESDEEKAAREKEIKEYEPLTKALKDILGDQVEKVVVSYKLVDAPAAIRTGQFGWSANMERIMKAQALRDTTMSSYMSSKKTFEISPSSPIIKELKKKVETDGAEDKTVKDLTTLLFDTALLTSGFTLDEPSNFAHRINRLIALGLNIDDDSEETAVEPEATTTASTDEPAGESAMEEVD
# Chain of Nonstructural protein 1 (Q194T2 whole entry): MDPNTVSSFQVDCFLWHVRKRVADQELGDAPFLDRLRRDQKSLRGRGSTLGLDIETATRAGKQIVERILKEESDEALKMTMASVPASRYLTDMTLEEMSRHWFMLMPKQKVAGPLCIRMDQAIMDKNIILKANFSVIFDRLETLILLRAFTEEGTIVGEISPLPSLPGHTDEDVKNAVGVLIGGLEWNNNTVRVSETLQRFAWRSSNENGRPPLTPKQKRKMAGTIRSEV
# Chain of Beta Lactamase (Q932Y6 whole entry): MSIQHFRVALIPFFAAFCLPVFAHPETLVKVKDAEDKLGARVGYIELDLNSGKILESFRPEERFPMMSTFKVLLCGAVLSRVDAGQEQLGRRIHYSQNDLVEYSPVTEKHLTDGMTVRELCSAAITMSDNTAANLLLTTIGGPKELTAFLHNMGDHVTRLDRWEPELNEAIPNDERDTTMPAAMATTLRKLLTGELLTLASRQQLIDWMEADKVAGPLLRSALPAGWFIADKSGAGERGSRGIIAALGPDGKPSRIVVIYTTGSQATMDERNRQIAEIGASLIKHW
# Chain of Voltage-gated inwardly rectifying potassium channel KCNH2 (Q12809 whole entry): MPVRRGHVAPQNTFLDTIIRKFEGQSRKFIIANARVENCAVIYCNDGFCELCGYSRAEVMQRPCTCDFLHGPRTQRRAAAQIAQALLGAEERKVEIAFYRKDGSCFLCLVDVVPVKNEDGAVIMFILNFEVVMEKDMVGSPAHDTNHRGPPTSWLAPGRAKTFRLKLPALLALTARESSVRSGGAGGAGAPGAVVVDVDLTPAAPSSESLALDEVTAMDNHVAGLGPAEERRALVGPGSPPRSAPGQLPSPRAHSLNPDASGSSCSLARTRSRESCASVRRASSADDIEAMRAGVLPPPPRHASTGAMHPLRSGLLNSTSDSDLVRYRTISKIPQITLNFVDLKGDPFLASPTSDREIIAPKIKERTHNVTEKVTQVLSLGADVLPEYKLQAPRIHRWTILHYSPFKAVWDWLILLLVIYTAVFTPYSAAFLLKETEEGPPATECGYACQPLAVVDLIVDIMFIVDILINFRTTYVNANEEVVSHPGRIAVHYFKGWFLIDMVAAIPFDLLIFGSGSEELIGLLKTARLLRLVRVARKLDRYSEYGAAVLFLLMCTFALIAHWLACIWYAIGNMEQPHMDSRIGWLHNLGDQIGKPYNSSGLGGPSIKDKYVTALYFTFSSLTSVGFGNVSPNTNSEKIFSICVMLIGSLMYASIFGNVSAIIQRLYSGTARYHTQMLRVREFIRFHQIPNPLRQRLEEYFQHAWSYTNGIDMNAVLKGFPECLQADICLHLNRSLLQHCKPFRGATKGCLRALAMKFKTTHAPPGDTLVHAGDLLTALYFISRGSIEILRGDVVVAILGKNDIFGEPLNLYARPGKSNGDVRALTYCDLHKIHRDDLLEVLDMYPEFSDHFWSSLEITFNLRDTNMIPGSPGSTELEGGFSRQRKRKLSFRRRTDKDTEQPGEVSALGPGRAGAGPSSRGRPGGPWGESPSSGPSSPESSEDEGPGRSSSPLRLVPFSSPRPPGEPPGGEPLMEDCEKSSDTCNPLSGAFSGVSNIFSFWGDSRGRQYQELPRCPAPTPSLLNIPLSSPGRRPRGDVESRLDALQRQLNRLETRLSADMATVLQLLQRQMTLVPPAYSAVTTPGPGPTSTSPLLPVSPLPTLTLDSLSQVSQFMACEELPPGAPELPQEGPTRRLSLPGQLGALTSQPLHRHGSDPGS
smiles,measurement,setting,value
c1ccc(Nc2ccc(Nc3ccccc3)cc2)cc1,AC50,[1],20 µM (inconclusive)
same,AC50,[2],50.1 µM (inconclusive)
same,AC50,[3],43.6 µM (active)
CCCCN1C(=O)/C(=C2\SC(N3CCCCC3)=NC2=O)c2ccccc21,AC50,[3],37.9 µM (active)
same,IC50,[4],> 66 µM (inactive)
same,IC50,[5],1.54 µM (active)
same,IC50,[6],> 66 µM (inactive)
same,IC50,[7],27.4 µM (active)
same,IC50,[8],2.13 µM (active)
COc1ccc(C(=O)c2sc3nc(-c4ccc(OC)cc4)ccc3c2N)cc1,IC50,[9],4.44 µM (active)
same,IC50,[10],2.99 µM (not active)
same,IC50,[11],36.8 µM (inactive)
Cc1cccc(/C=C/C(=O)c2cc(Br)ccc(=O)c2O)c1,CC50,[12],15.1 µM (active)
same,EC50,[13],2.77 µM (active)
same,EC50,[14],11.6 µM (active)
same,EC50,[15],1.11 µM (active)
same,EC50,[16],1.78 µM (active)
same,CC50,[17],7.95 µM (active)
same,EC50,[18],> 120 µM (not active)
same,EC50,[19],9.67 µM (active)
same,EC50,[20],6.88 µM (active)
same,EC50,[21],42.4 µM (inconclusive)
same,EC50,[22],> 180 µM (inactive)
COc1ccc(C(=O)Nc2ccc3[nH]ccc3c2)cc1,EC50,[23],5.61 µM (active)
same,AC50,[24],2.59 µM (active)
same,EC50,[18],13.6 µM (active)
same,EC50,[19],7.91 µM (active)
same,EC50,[25],3.28 µM (active)
same,AC50,[26],27.2 µM (active)
